Experimental data published in patent publication US20180251431A1 (VERTEX PHARMACEUTICALS INCORPORATED, priority 2016, published 2018).
Read-outs that look alike come from different tables or passages of the source.

Tested on: HEK293 cells
Experiment: HEK293 VLCFA-LPC IC50 determination (13C-labeled C26:0 LPC by UHPLC/MS)
Format: cell-based, human
Settings: Homo sapiens, average of one or more replicates, read-out: Average HEK293 IC50
Outline: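 Suspension HEK293 cells (final 0.5 million/mL after mixing with equal volume) incubated 48 hours with compound plus 13C-acetate (1.0 mg/mL in added media), shaking at 37° C. Lipids extracted with hexane/isopropanol or methanol, C13:0 LPC standard. UHPLC/MS of 13C-labeled C26:0 LPC (638.500/104.100 m/z); IC50 by four-parameter fit.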

[1] = HEK293, 48 h, 13C-labeled C26:0 LPC, 48 hours

| SMILES | IC50 (HEK293, HEK293 cells) [nM] | IC50 [1] [nM] |
| --- | --- | --- |
| O=C(Nc1ccn(-c2ccccc2)n1)C1(c2c(F)cccc2Cl)CC1 [Compound 275, 1-(2-chloro-6-fluoro-phenyl)-N-(1-phenylpyrazol-3-yl)cyclopropanecarboxamide] | 50 | – |
| [2H]C1([2H])C([2H])([2H])C1(C(=O)Nc1ccn(-c2ccnc(F)c2)n1)c1ccccc1F [Compound 276, 2,2,3,3-tetradeuterio-1-(2-fluorophenyl)-N-[1-(2-fluoro-4-pyridyl)pyrazol-3-yl]cyclopropanecarboxamide] | 11 | – |
| O=C(Nc1ccn(-c2ccnc(F)c2)n1)C1(c2ncccc2F)CC1 [Compound 277, 1-(3-f1uoro-2-pyridyl)-N-[1-(2-fluoro-4-pyridyl)pyrazol-3-yl]cyclopropanecarboxamide] | 120 | – |
| O=C(Nc1ccn(-c2ccncn2)n1)C1(c2ccncc2F)CC1 [Compound 278, 1-(3-fluoro-4-pyridyl)-N-(1-pyrimidin-4-ylpyrazol-3-yl)cyclopropanecarboxamide] | > 5000 | – |
| O=C(Nc1ccn(-c2ccncn2)n1)C1(c2ncccc2F)CC1 [Compound 279, 1-(3-fluoro-2-pyridyl)-N-(1-pyrimidin-4-ylpyrazol-3-yl)cyclopropanecarboxamide] | 520 | – |
| O=C(Nc1ccn(-c2ccccc2)n1)C1(c2ccncc2F)CC1 [Compound 280, 1-(3-fluoro-4-pyridyl)-N-(1-phenylpyrazol-3-yl)cyclopropanecarboxamide] | 770 | – |
| O=C(Nc1ccn(-c2ccccc2)n1)C1(c2ncccc2F)CC1 [Compound 281, 1-(3-fluoro-2-pyridyl)-N-(1-phenylpyrazol-3-yl)cyclopropanecarboxamide] | 58 | – |
| Cc1ccnn1CC(=O)Nc1ccn(-c2ccnc(F)c2)n1 [Compound 282, N-[1-(2-fluoro-4-pyridyl)pyrazol-3-yl]-2-(5-methylpyrazol-1-yl)acetamide] | > 2000 | – |
| O=C(Cn1cccn1)Nc1ccn(-c2ccnc(F)c2)n1 [Compound 283, N-[1-(2-fluoro-4-pyridyl)pyrazol-3-yl]-2-pyrazol-1-yl-acetamide] | > 5000 | – |
| O=C(Nc1ccn(-c2ccnc(F)c2)n1)C1(c2ccc3c(c2)OC(F)(F)O3)CC1 [Compound 285, 1-(2,2-difluoro-1,3-benzodioxol-5-yl)-N-[1-(2-fluoro-4-pyridyl)pyrazol-3-yl]cyclopropanecarboxamide] | 40 | – |
| O=C(Cn1ccnc1)Nc1ccn(-c2ccnc(F)c2)n1 [Compound 286, N-[1-(2-fluoro-4-pyridyl)pyrazol-3-yl]-2-imidazol-1-yl-acetamide] | 5000 | – |
| O=C(Cn1cccn1)Nc1ccn(-c2ccccc2)n1 [Compound 289, N-(1-phenylpyrazol-3-yl)-2-pyrazol-1-yl-acetamide] | > 5000 | – |
| Cc1cnn(CC(=O)Nc2ccn(-c3ccccc3)n2)c1 [Compound 290, 2-(4-methylpyrazol-1-yl)-N-(1-phenylpyrazol-3-yl)acetamide] | > 5000 | – |
| Cc1ccn(CC(=O)Nc2ccn(-c3ccccc3)n2)n1 [Compound 291, 2-(3-methylpyrazol-1-yl)-N-(1-phenylpyrazol-3-yl)acetamide] | > 5000 | – |
| O=C(Nc1ccn(-c2ccccc2)n1)C1(c2ccc3c(c2)OC(F)(F)O3)CC1 [Compound 292, 1-(2,2-difluoro-1,3-benzodioxo1-5-yl)-N-(1-phenylpyrazol-3-yl)cyclopropanecarboxamide] | 85 | – |
| O=C(Cc1ccsc1)Nc1ccn(-c2ccnc(F)c2)n1 [Compound 293, N-[1-(2-fluoro-4-pyridyl)pyrazol-3-yl]-2-(3-thienyl)acetamide] | 980 | – |
| CCC(C)(C(=O)Nc1ccn(-c2ccnc(F)c2)n1)c1ccccc1 (centres unmarked) [Compound 294, N-[1-(2-fluoro-4-pyridyl)pyrazol-3-yl]-2-methyl-2-phenyl-butanamide] | 390 | – |
| O=C(Cn1cccc1)Nc1ccn(-c2ccnc(F)c2)n1 [Compound 295, N-[1-(2-fluoro-4-pyridyl)pyrazol-3-yl]-2-pyrrol-1-yl-acetamide] | > 5000 | – |
| CC(C)(C(=O)Nc1ccn(-c2ccccc2)n1)c1ccccc1F [Compound 296, 2-(2-fluorophenyl)-2-methyl-N-(1-phenylpyrazol-3-yl)propanamide] | 1700 | – |
| O=C(Cn1cccc1)Nc1ccn(-c2ccccc2)n1 [Compound 297, N-(1-phenylpyrazol-3-yl)-2-pyrrol-1-yl-acetamide] | 1800 | – |
| O=C(Cn1nccn1)Nc1ccn(-c2ccccc2)n1 [Compound 298, N-(1-phenylpyrazol-3-yl)-2-(triazol-2-yl)acetamide] | > 2000 | – |
| O=C(Cn1nccn1)Nc1ccn(-c2ccnc(F)c2)n1 [Compound 299, N-[1-(2-fluoro-4-pyridyl)pyrazol-3-yl]-2-(triazol-2-yl)acetamide] | 5000 | – |

| SMILES | IC50 (HEK293, HEK293 cells) [nM] | IC50 [1] [nM] |
| --- | --- | --- |
| CCC(C)(C(=O)Nc1ccn(-c2ccccc2)n1)c1ccccc1 (centres unmarked) [Compound 300, 2-methyl-2-phenyl-N-(1-phenylpyrazol-3-yl)butanamide] | 560 | – |
| O=C(Nc1ccn(-c2cc(F)cc(F)c2)n1)C1(c2ccccc2F)CC1 [Compound 301, N-[1-(3,5-difluorophenyl)pyrazol-3-yl]-1-(2-fluorophenyl)cyclopropanecarboxamide] | 140 | – |
| Cn1ccnc1CC(=O)Nc1ccn(-c2ccnc(F)c2)n1 [Compound 302, N-[1-(2-fluoro-4-pyridyl)pyrazol-3-yl]-2-(1-methylimidazol-2-yl)acetamide] | > 5000 | – |
| O=C(Cn1cncn1)Nc1ccn(-c2ccnc(F)c2)n1 [Compound 303, N-[1-(2-fluoro-4-pyridyl)pyrazol-3-yl]-2-(1,2,4-triazol-1-yl)acetamide] | > 5000 | – |
| O=C(Cc1ccon1)Nc1ccn(-c2ccnc(F)c2)n1 [Compound 304, N-[1-(2-fluoro-4-pyridyl)pyrazol-3-yl]-2-isoxazol-3-yl-acetamide] | > 5000 | – |
| O=C(Cc1ccon1)Nc1ccn(-c2ccccc2)n1 [Compound 306, 2-isoxazol-3-yl-N-(1-phenylpyrazol-3-yl)acetamide] | > 2000 | – |
| O=C(Cc1nccs1)Nc1ccn(-c2ccnc(F)c2)n1 [Compound 307, N-[1-(2-fluoro-4-pyridyl)pyrazol-3-yl]-2-thiazol-2-yl-acetamide] | > 2000 | – |
| O=C(Nc1ccn(-c2cc(F)cc(F)c2)n1)C1(c2ccccc2)CC1 [Compound 308, N-(1-(3,5-difluorophenyl)-1H-pyrazol-3-yl)-1-phenylcyclopropane-1-carboxamide] | 140 | – |
| Cn1cccc1CC(=O)Nc1ccn(-c2ccnc(F)c2)n1 [Compound 309, N-[1-(2-fluoro-4-pyridyl)pyrazol-3-yl]-2-(1-methylpyrrol-2-yl)acetamide] | > 5000 | – |
| Cn1ccnc1CC(=O)Nc1ccn(-c2ccccc2)n1 [Compound 311, 2-(1-methylimidazol-2-yl)-N-(1-phenylpyrazol-3-yl)acetamide] | > 5000 | – |
| O=C(Nc1ccn(-c2ccnc(F)c2)n1)C1(c2ccncc2F)CC1 [Compound 313, 1-(3-fluoro-4-pyridyl)-N-[1-(2-fluoro-4-pyridyl)pyrazol-3-yl]cyclopropanecarboxamide] | 1700 | – |
| COc1ccc(F)c(C2(C(=O)Nc3ccn(-c4ccnc(F)c4)n3)CC2)c1 [Compound 314, 1-(2-fluoro-5-methoxy-phenyl)-N-[1-(2-fluoro-4-pyridyl)pyrazol-3-yl]cyclopropanecarboxamide] | 57 | – |
| O=C(Nc1ccn(-c2ccc(C(F)(F)F)nc2)n1)C1(c2ccccc2F)CC1 [Compound 315, 1-(2-fluorophenyl)-N-(1-(6-(trifluoromethyl)pyridin-3-yl)-1H-pyrazol-3-yl)cyclopropane-1-carboxamide] | – | > 5000 |
| O=C(Nc1ccn(-c2cncc(C(F)(F)F)c2)n1)C1(c2ccccc2F)CC1 [Compound 316, 1-(2-fluorophenyl)-N-[1-[5-(trifluoromethyl)-3-pyridyl]pyrazol-3-yl]cyclopropanecarboxamide] | – | > 5000 |
| COc1ncccc1-n1ccc(NC(=O)C2(c3ccccc3F)CC2)n1 [Compound 317, 1-(2-fluorophenyl)-N-[1-(2-methoxy-3-pyridyl)pyrazol-3-yl]cyclopropanecarboxamide] | – | > 5000 |
| N#Cc1cncc(-n2ccc(NC(=O)C3(c4ccccc4F)CC3)n2)c1 [Compound 318, N-[1-(5-cyano-3-pyridyl)pyrazol-3-yl]-1-(2-fluorophenyl)cyclopropanecarboxamide] | – | > 5000 |
| COc1ccc(-n2ccc(NC(=O)C3(c4ccccc4F)CC3)n2)cn1 [Compound 319, 1-(2-fluorophenyl)-N-(1-(6-methoxypyridin-3-yl)-1H-pyrazol-3-yl)cyclopropane-1-carboxamide] | – | 58 |
| N#Cc1ncccc1-n1ccc(NC(=O)C2(c3ccccc3F)CC2)n1 [Compound 320, N-[1-(2-cyano-3-pyridyl)pyrazol-3-yl]-1-(2-fluorophenyl)cyclopropanecarboxamide] | – | > 5000 |
| COc1cc(-n2ccc(NC(=O)C3(c4ccccc4F)CC3)n2)cc(OC)c1OC [Compound 321, 1-(2-fluorophenyl)-N-[1-(3,4,5-trimethoxyphenyl)pyrazol-3-yl]cyclopropanecarboxamide] | – | > 5000 |
| COc1ccc(-n2ccc(NC(=O)C3(c4ccccc4F)CC3)n2)cc1F [Compound 322, N-[1-(3-fluoro-4-methoxy-phenyl)pyrazol-3-yl]-1-(2-fluorophenyl)cyclopropanecarboxamide] | – | 4000 |
| Cc1cncc(-n2ccc(NC(=O)C3(c4ccccc4F)CC3)n2)c1 [Compound 323, 1-(2-fluorophenyl)-N-[1-(5-methyl-3-pyridyl)pyrazol-3-yl]cyclopropanecarboxamide] | – | 350 |
| O=C(Nc1ccn(-c2ccnc(C(F)(F)F)c2)n1)C1(c2ccccc2F)CC1 [Compound 324, 1-(2-fluorophenyl)-N-(1-(2-(trifluoromethyl)pyridin-4-yl)-1H-pyrazol-3-yl)cyclopropane-1-carboxamide] | – | > 5000 |
